Publication PMC5506005, “A novel protein kinase inhibitor IMB-YH-8 with anti-tuberculosis activity” (Scientific Reports, 2017)
In brackets after ≈: the same amount, converted by molar mass. Like-named read-outs stand apart in the source and are kept apart here.

Tests used:
PknB [1] = target: T1, PknB (Mycobacterium tuberculosis, UniProt P9WI81); assay: In vitro protein kinase assay (Kinase Glo), auto-phosphorylation of PknB; format: biochemical, M. tuberculosis; settings: non-radioactive Kinase Glo assay, 100 μM ATP
T1 sequence (P9WI81 11-274 limits assumed): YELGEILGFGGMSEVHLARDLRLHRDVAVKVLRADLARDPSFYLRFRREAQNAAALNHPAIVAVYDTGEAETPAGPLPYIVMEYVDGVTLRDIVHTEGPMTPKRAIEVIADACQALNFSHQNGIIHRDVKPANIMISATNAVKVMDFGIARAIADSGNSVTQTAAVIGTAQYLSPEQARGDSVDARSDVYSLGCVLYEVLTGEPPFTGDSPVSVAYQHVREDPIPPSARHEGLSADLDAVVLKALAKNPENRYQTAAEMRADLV

PknA = target: T2, PknA (Mycobacterium tuberculosis, UniProt P9WI83); assay: In vitro protein kinase assay (Kinase Glo), auto-phosphorylation of PknA; format: biochemical, M. tuberculosis
T2 sequence (P9WI83 1-431): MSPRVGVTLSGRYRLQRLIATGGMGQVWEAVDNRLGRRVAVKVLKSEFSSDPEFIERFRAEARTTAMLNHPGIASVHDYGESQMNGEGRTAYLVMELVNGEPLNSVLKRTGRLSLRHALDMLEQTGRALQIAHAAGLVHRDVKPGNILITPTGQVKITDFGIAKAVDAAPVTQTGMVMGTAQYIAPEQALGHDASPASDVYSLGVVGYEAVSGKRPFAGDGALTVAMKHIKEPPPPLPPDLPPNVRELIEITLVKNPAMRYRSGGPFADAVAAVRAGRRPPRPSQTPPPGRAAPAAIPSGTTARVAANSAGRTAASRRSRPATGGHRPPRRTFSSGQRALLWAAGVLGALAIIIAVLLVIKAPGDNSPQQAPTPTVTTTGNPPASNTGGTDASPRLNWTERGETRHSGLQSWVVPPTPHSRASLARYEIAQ

PknG = PknG (Mycobacterium tuberculosis, UniProt P9WI73); assay: In vitro protein kinase assay (Kinase Glo), auto-phosphorylation of PknG; format: biochemical, M. tuberculosis
PknF = PknF (Mycobacterium tuberculosis, UniProt P9WI75); assay: In vitro protein kinase assay (Kinase Glo), auto-phosphorylation of PknF; format: biochemical, M. tuberculosis
PknH = PknH (Mycobacterium tuberculosis, UniProt P9WI71); assay: In vitro protein kinase assay (Kinase Glo), auto-phosphorylation of PknH; format: biochemical
human kinase Akt1 = human kinase Akt1 (Homo sapiens, UniProt P31749); assay: In vitro protein kinase assay (Kinase Glo), auto-phosphorylation of Akt1; format: biochemical
PknB [2] = target: T1, PknB; assay: Phosphorylation of GarA by PknB, Phos-tag SDS-PAGE; format: biochemical, M. tuberculosis; settings: non-phosphorylated GarA increased in a dose-dependent manner
Protocol: In vitro phosphorylation of GarA (5 μM) by PknB (3 μM) was carried out in 50 μl reaction mixture (25 mM Tris-HCl (pH = 7.4), 5 mM MgCl2, 2 mM MnCl2). The reaction was initiated with the additional of 100 μM ATP and incubated at 37 °C for 3 hours. The reaction was terminated with the addition of SDS-PAGE sample buffer and heating the mixture at 100 °C for 5 min. The reaction mixtures were analyzed by 12% SDS-PAGE with or without Phos-tag SDS-PAGE to differentiate the phosphorylated and non-phosphorylated GarA. Phos-tag SDS-PAGE was performed with gel containing 20 μM Phos-tag acrylamide (Wako Pure Chemical Industries, Japan) and 100 µM MnCl2 according to the manufacturer’s instructions. Electrophoresis was performed at 4 °C in Tris-glycine SDS-PAGE running buffer at 30 mA for 2 h. Images were adjusted for contrast and brightness using Bio-Rad image lab software version 2.01.

PknB [3] = target: T1, PknB; assay: Surface plasmon resonance (BIAcore) binding to PknB; parameters: species or system M. tuberculosis; settings: single cycle kinetics, 1:1 binding model, 25 °C, read-out: Kd for binding to PknB (SPR)
PknB [4] = target: PknB (Mycobacterium tuberculosis, UniProt P9WI81); assay: biochemical; format: binding, M. tuberculosis
Target sequence in this assay (P9WI81 1-279 limits assumed): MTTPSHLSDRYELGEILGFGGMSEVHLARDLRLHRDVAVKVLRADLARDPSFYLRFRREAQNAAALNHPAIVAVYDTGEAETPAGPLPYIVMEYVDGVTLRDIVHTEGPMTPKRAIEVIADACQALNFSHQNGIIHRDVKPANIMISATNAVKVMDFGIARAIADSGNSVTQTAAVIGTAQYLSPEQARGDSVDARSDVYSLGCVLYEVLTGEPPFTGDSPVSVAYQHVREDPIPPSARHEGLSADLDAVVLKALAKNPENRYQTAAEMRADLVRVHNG

M. tuberculosis H37Rv [5] = assay: MIC by microplate Alamar blue assay (MABA), H37Rv; format: cell-based; settings: Mycobacterium tuberculosis
[6] = system: clinical isolates of M. tuberculosis; assay: microbe, parasite or virus in culture; format: cell-based; settings: Mycobacterium tuberculosis, clinical isolate 31251, sensitive
[7] = system: intracellular M. tuberculosis H37Rv; assay: Intracellular activity assay in infected THP-1 cells (CFU); format: cell-based; settings: 3 days; for Log10CFU: infected THP-1 cells, mean ± SD, untreated 5.03 ± 0.12
M. tuberculosis H37Rv [8] = assay: Scanning electron microscopy of cell morphology; format: cell-based; settings: 1 μg/ml for 5 days, SEM
Protocol: To determine whether IMB-YH-8 affects the morphology of M. tuberculosis H37Rv, scanning electron microscopy (SEM) was performed. H37Rv was grown to early log phase (optical density at 600 nm, ~0.2). Then 1 μg/ml IMB-YH-8 was added to treat cells, followed by incubation at 37 °C for 5 days. Cells were harvested by low-speed centrifugation and washed in 0.1 M phosphate buffer (pH 7.4). The cells were then fixed in 0.1 M phosphate buffer (pH 7.4) containing 2.5% glutaraldehyde and 0.5% paraformaldehyde. The samples were submitted to the Instrument Center of Institute of Microbiology, Chinese Academy of Sciences for further analysis. Observations were carried out using a SEM (SU8010; Hitachi, Tokyo, Japan). Untreated H37Rv were also processed as control.

[9] = system: M. tuberculosis gene transcripts (PknB/SigH regulatory pathways); assay: Gene expression by microarray; format: cell-based; settings: 4 h; for fold induction at 2.5 µg/mL: Mycobacterium tuberculosis; for Regulation: 2.5 μg/ml
Protocol: The drug-treated (2.5 μg/ml IMB-YH-8), together with control (DMSO) mycobacterial cultures, were incubated at 37 °C for 4 h. Total RNAs were isolated by RiboPure^TM-Bacteria Kit (Life Technology, AM1925) according to the manufacturer’s instructions. The quantity and quality of each RNA sample was determined using NanoDrop ND-2000 spectrophotometer (Thermo Scientific, Wilmington, DE) and Agilent 2100 Bioanalyzer (Agilent Technologies, Santa Clara, CA).
The qualified RNA samples were labeled and hybridized on Agilent 4 × 44 K Custom design Gene Expression Microarray according to manufacturer protocol (Agilent, Santa Clara, CA). In brief, 100 ng of each RNA sample was amplified to cRNA and labeled with Cy-3 using Agilent Low Input Quick Amp Labeling Kit. The labeled samples were hybridized for 16 hours at 10 rotations per minute. After hybridization, the arrays were washed and scanned by Agilent scanner and then the image was analyzed by Agilent Feature Extraction v11.5. Data obtained from Feature Extraction were imported to GeneSpring GX version 13.1 (Agilent Technologies, Santa Clara, CA) for 75th percentile shift and baseline to median of all samples normalization.

[10] = system: M. tuberculosis H37Rv gene transcripts (PknB/SigH regulatory pathways); format: cell-based; settings: 2.5 μg/ml, 4 h; for Real-time reverse transcription PCR Normalized ΔCt (mean ± SD): normalized to sigA mRNA
THP-1 cells = settings: calculated as the CC50/MIC (THP-1 / H37Rv)
Mycobacterium marinum = system: Mycobacterium marinum; parameters: method as in earlier work; settings: previous high throughput screening study; cited from earlier work
Mycobacterium smegmatis = system: Mycobacterium smegmatis; parameters: method as in earlier work; settings: previous high throughput screening study; cited from earlier work
in vitro = settings: human
[11] = cited from earlier work

Chain of human kinase Akt1 (P31749 whole entry): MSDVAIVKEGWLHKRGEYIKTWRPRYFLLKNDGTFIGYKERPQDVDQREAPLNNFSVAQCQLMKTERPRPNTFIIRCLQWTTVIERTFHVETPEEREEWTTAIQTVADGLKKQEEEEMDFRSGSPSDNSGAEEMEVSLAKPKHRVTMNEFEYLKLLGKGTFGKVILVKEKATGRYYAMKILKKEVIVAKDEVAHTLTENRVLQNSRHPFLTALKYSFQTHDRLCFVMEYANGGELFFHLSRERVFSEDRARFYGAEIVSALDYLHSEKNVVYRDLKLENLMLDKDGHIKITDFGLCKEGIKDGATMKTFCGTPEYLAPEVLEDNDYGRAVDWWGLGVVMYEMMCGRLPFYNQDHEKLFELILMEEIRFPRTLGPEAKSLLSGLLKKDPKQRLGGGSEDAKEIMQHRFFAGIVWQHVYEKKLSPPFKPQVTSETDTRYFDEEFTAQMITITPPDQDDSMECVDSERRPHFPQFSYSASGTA
Chain of PknH (P9WI71 whole entry): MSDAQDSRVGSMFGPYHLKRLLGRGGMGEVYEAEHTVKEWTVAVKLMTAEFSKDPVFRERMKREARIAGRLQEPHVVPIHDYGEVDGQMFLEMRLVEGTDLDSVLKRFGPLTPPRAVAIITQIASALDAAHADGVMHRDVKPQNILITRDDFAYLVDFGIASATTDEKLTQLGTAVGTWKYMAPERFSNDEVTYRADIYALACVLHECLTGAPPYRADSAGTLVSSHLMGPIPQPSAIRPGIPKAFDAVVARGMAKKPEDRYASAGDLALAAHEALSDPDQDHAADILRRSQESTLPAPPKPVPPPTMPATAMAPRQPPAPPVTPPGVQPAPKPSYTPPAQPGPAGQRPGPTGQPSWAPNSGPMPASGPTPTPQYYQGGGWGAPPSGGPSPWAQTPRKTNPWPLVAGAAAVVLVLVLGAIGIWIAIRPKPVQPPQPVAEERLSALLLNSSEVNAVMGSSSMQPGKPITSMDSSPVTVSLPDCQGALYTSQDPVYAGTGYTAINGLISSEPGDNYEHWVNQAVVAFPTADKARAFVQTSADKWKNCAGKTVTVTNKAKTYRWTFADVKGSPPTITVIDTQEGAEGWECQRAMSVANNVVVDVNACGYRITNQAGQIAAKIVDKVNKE
Chain of PknG (P9WI73 whole entry): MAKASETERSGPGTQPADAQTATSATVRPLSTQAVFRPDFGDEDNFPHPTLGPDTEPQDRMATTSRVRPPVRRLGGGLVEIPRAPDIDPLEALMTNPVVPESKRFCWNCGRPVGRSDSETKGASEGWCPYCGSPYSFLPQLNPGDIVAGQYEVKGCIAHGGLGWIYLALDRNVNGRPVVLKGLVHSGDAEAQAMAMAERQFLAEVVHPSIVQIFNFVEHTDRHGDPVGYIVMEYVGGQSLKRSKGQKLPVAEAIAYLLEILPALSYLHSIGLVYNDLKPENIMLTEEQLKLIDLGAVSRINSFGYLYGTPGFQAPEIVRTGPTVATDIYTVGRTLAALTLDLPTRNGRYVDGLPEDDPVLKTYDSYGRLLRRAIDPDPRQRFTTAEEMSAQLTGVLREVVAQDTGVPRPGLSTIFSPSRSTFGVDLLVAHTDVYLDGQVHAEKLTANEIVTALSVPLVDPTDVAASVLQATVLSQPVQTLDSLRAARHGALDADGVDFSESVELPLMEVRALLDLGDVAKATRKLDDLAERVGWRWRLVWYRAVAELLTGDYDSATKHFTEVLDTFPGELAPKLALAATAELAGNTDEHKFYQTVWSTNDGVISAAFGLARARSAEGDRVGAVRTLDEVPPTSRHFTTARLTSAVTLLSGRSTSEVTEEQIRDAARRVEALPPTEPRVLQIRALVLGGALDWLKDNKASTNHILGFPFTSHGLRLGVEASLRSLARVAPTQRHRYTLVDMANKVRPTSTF
Chain of PknF (P9WI75 whole entry): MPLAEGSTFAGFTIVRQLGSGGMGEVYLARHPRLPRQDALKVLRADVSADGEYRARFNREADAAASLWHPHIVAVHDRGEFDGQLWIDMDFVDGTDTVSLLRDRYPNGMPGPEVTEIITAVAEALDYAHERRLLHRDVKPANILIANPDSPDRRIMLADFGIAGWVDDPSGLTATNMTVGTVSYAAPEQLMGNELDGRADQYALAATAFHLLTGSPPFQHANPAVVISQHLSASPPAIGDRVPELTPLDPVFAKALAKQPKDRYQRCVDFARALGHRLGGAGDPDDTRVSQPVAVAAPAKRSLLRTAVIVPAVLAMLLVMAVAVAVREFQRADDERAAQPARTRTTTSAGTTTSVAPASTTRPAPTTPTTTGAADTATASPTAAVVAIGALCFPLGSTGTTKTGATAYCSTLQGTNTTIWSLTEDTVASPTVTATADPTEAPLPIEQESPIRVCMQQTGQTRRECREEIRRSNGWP

## COC(=O)/C=C/C(=O)c1ccc(OC)cc1 [IMB-YH-8]
PknB [1]
  IC50: 20.2 µM
PknA
  IC50: 44.3 µM
PknG
  IC50: 349 µM
PknF
  IC50: 503 µM
PknH
  IC50: > 640 µM
Human kinase Akt1
  IC50: > 640 µM
PknB [2]
  PknB-catalyzed phosphorylation of GarA: inhibited
PknB [3]
  Kd: 25.3 µM
PknB [4]
  Kd: 13.5 µM
PknB [4]; ITC, 25 °C
  ΔG of binding to PknB: -6.64 kcal/mol
  ΔH of binding to PknB: -5.7 kcal/mol
  −TΔS of binding to PknB: -0.94 kcal/mol
M. tuberculosis H37Rv [5]
  MIC: 0.25 µg/mL
M. tuberculosis H37Rv [5]; converted from 0.25 μg/ml
  MIC: 1.14 µM
[6]
  MIC: 0.25 µg/mL (≈ 1.14 µM)
[7]; 0.5 µg/ml
  reduction in CFU compared to untreated control: 0.18 log10
[7]; 0.5 μg/ml
  Log10CFU: 4.85 ± 0.04
[7]; 1 µg/ml
  reduction in CFU compared to untreated control: 0.62 log10
[7]; 1 μg/ml
  Log10CFU: 4.41 ± 0.12
[7]; 2 µg/ml
  reduction in CFU compared to untreated control: 1.11 log10
[7]; 2 μg/ml
  Log10CFU: 3.92 ± 0.11
M. tuberculosis H37Rv [8]
  proportion of ruptured cells: 61.5%
[9]; read-out: Fold induction in microarray (mean ± SD), gene Rv2466c, 2.5 μg/ml
  fold induction at 2.5 µg/mL: 6.86 ± 1.93
[9]; read-out: Fold induction in microarray (mean ± SD), gene rshA (Rv3221A), 2.5 μg/ml
  fold induction at 2.5 µg/mL: 6.07 ± 0.33
[9]; read-out: Fold induction in microarray (mean ± SD), gene sigH (Rv3223c), 2.5 μg/ml
  fold induction at 2.5 µg/mL: 2.92 ± 0.09
[9]; read-out: Fold induction in microarray (mean ± SD), gene trxB2 (Rv3913), 2.5 μg/ml
  fold induction at 2.5 µg/mL: 6.9 ± 0.75
[9]; read-out: Fold induction in microarray (mean ± SD), gene trxC (Rv3914), 2.5 μg/ml
  fold induction at 2.5 µg/mL: 8.03 ± 0.33
[9]; gene Rv2466c
  Regulation: Up
[9]; gene rshA (Rv3221A)
  Regulation: Up
[9]; gene sigH (Rv3223c)
  Regulation: Up
[9]; gene trxB2 (Rv3913)
  Regulation: Up
[9]; gene trxC (Rv3914)
  Regulation: Up
[10]; gene Rv2466c
  Real-time reverse transcription PCR Normalized ΔCt (mean ± SD): 6.325 ± 2.51
[10]; gene rshA (Rv3221A)
  Real-time reverse transcription PCR Mean fold change (2^ΔΔCt Value): 264.11
  Real-time reverse transcription PCR Normalized ΔCt (mean ± SD): 8.045 ± 0.59
[10]; gene sigH (Rv3223c)
  Real-time reverse transcription PCR Mean fold change (2^ΔΔCt Value): 5.88
  Real-time reverse transcription PCR Normalized ΔCt (mean ± SD): 2.555 ± 0.11
[10]; gene trxB2 (Rv3913)
  Real-time reverse transcription PCR Mean fold change (2^ΔΔCt Value): 7.67
  Real-time reverse transcription PCR Normalized ΔCt (mean ± SD): 2.940 ± 0.07
[10]; gene trxC (Rv3914)
  Real-time reverse transcription PCR Mean fold change (2^ΔΔCt Value): 5.48
  Real-time reverse transcription PCR Normalized ΔCt (mean ± SD): 2.455 ± 0.06
THP-1 cells
  SI, selectivity index: 30.4
Mycobacterium marinum
  inhibition of Mycobacterium marinum: inhibited
Mycobacterium smegmatis
  inhibition of Mycobacterium smegmatis: inhibited
In vitro
  CC50 at 48 h: 7.61 µg/mL (≈ 34.6 µM)
[11]; oral delivery of 200 mg/kg
  time until serum concentrations fall below the therapeutic range: less than 1 hour
[11]; rat, in vivo, po, 200 mg/kg
  serum Cmax: sub-microgram/ml

## NNC(=O)c1ccncc1 [INH, isoniazid, reference compound]
[7]; 0.5 μg/ml
  Log10CFU: 3.24 ± 0.05
[7]; 1 μg/ml
  Log10CFU: 3.14 ± 0.06
[7]; 2 μg/ml
  Log10CFU: 2.57 ± 0.14
